We go through 6 compounds from patent EP4154878A1, “APPLICATION OF ACTIVE […] ROOT OF […] OR PHARMACEUTICALLY ACCEPTABLE SALT THEREOF IN PREPARING ANTIVIRAL DRUG” (priority 2020, dated 2021).

Read-outs that look alike come from different tables or passages of the source.

Holding throughout (assay type): cell-based
For one series, the system named is SARS-CoV-2. The experiment in a line: microbe, parasite or virus in culture. The settings on record: read-out: half effective concentration EC50 on activity of SARS-CoV-2.
Another series relates to SARS-CoV-2 pseudovirus. Put plainly: microbe, parasite or virus in culture. The settings on record: Severe acute respiratory syndrome-related coronavirus, 293T/ACE2, 48 h, read-out: half inhibitory concentration IC50 to inhibit entering of the SARS-CoV-2 pseudovirus into a target cell.
In a further series the test system is cell Vero-E6. The experiment in a line: Cytotoxicity detection (CCK-8), cell Vero-E6. As to conditions: for toxic effect on the cell Vero-E6: 48 hours, CCK-8; for cytotoxicity: within the effective concentration range, cell not named. The method, then:
(§1) • 1. Method: • 1) Cell inoculation: Cells Vero-E6 and 293T/ACE2 in a logarithmic growth period were taken, cell densities thereof were adjusted to 1^∗10^4 cells/well, and 100 µL/well thereof were respectively inoculated on a 96-well plate and cultured overnight. • 2) Drug concentration design: Before administration, a drug was diluted to nine concentration gradients with a DMEM medium containing fetal bovine serum of 2% of a total volume twice multiple proportions, and an initial concentration of the drug was set to 200 µM (200, 100, 50, 25, 12.5, 6.25, 3.125, 1.5625, 0.78125 µM), and 100 µL per well of a diluted drug was taken to be added into the cells Vero-E6 and 293T/ACE2 in the 96-well plate in 1), with a final volume of 200 µL per well. Triplicate wells were set for each drug concentration. A DMSO solvent treatment group was used as a blank control. • 3) Absorbance detection: After incubation in an incubator for 48 hours, 10 µL of a CCK-8 working solution was added into each well, and incubation continued to be conducted in the incubator for 3 hours. The absorbance at 450 nm was measured by a microplate reader. • 4) According to measured OD values, survival rates of the cells Vero-E6 and 293T/ACE2 under the action of various concentrations of the drug were calculated respectively compared with the control group. • 2.
(§2) • 1. Method: • 1) Cell inoculation: Cells Vero-E6 and 293T/ACE2 in a logarithmic growth period were taken, cell densities thereof were adjusted to 1^∗10^4 cells/well, and 100 µL/well thereof were respectively inoculated on a 96-well plate and cultured overnight in a 37°C cell incubator. • 2) Drug concentration design: Before administration, a drug was diluted to eight concentration gradients with a DMEM medium containing fetal bovine serum of 2% of a total volume twice multiple proportions. Cell Vero-E6: an initial concentration was set to 200 µM (200, 100, 50, 25, 12.5, 6.25, 3.125, 1.5625 µM), and 100 µL per well of a diluted drug was taken to be added into the cell Vero-E6 in the 96-well plate in 1), with a final volume of 200 µL per well. Triplicate wells were set for each drug concentration. A DMSO solvent treatment group was used as a blank control. Cell 293T/ACE2: an initial concentration was set to 100 µM (100, 50, 25, 12.5, 6.25, 3.125, 1.5625, 0.78125 µM), and 100 µL per well of a diluted drug was taken to be added into the cell 293T/ACE2 in the 96-well plate in 1), with a final volume of 200 µL per well. Triplicate wells were set for each drug concentration. A DMSO solvent treatment group was used as a blank control. • 3) Absorbance detection: After incubation in an incubator for 48 hours, 10 µL of a CCK-8 working solution was added into each well, and incubation continued to be conducted in the incubator for 3 hours. The absorbance at 450 nm was measured by a microplate reader. • 4) According to measured OD values, survival rates of the cells Vero-E6 and 293T/ACE2 under the action of various concentrations of the drug were calculated respectively compared with the control group.
• 1. Method: • 1) Cell inoculation: Cells Vero-E6 and 293T/ACE2 in a logarithmic growth period were taken, cell densities thereof were adjusted to 1^∗10^4 cells/well, and 100 µL/well thereof were respectively inoculated on a 96-well plate and cultured overnight. • 2) Drug concentration design: Before administration, a drug was diluted to nine concentration gradients with a DMEM medium containing fetal bovine serum of 2% of a total volume twice multiple proportions, and an initial concentration was set to 200 µM (200, 100, 50, 25, 12.5, 6.25, 3.125, 1.5625, 0.78125 µM), and 100 µL per well of a diluted drug was taken to be added into the cells Vero-E6 and 293T/ACE2 in the 96-well plate in 1), with a final volume of 200 µL per well. Triplicate wells were set for each drug concentration. […]

The subject of the next series is cell 293T/ACE2. The experiment in a line: Cytotoxicity detection (CCK-8), cell 293T/ACE2. The settings on record: 48 hours. The method, then:
as §1
as §2, with “Cell 293T/ACE2: an initial concentration was set to 100 µM (100, 50, 25, 12.5, 6.25, 3.125, 1.5625, 0.78125 µM), and 100 µL per well of a diluted drug was taken to be added into the cell 293T/ACE2 in the 96-well plate in 1), with a final volume of 200 µL per well. Triplicate wells were set for each drug concentration.” left out, “group. […]” for “group.”

Setting [1] is: Severe acute respiratory syndrome coronavirus 2, Vero C1008, 24 h.
Setting [2] is: at 100 µM and within an effective concentration range.
The mark [3] stands for this setting: at 200 µM and within an effective concentration range.

Regarding `Cc1cccc2c3c(ccc12)C1=C(C(=O)C3=O)[C@@H](C)CO1` [dihydrotanshinone I], the EC50 in the series with SARS-CoV-2 (setting [1]) is 640 nM. For the same compound, in the series with SARS-CoV-2 pseudovirus, the IC50 came out at 680 nM. Also, in the series on cell Vero-E6 (at 10 µM and within an effective concentration range), the “toxic effect on the cell Vero-E6” value is reported as “no obvious toxic effect”. Also, the cytotoxicity entry with cell Vero-E6 was “no obvious cytotoxicity”. The “toxic effect on the cell 293T/ACE2” value in the series on cell 293T/ACE2 (at 2.5 µM and within an effective concentration range) is given as “no obvious toxic effect”.

`Cc1coc2c1C(=O)C(=O)c1c-2ccc2c(C)cccc12` [Tanshinone I]: in the series with SARS-CoV-2, the EC50 stood at 2980 nM. In addition, the “toxic effect on the cell Vero-E6” value with cell Vero-E6 (setting [2]) is listed as “no obvious toxic effect”. Also, in the series on cell Vero-E6, the cytotoxicity entry is recorded as “no obvious cytotoxicity”.

Take `O=C(O)[C@H](O)Cc1ccc(O)c(O)c1` [salvianic acid A]: the EC50 in the series on SARS-CoV-2 (setting [1]) amounted to 1070 nM. In addition, in the series with SARS-CoV-2 pseudovirus, the IC50 came to 2700 nM. The “toxic effect on the cell Vero-E6” value in the series on cell Vero-E6 (setting [3]) was “no obvious toxic effect”. Moreover, the cytotoxicity result in the series on cell Vero-E6 is listed as “no obvious cytotoxicity”. Besides, the “toxic effect on the cell 293T/ACE2” value in the series with cell 293T/ACE2 (setting [3]) was “no obvious toxic effect”.

Regarding `O=C(/C=C/c1ccc(O)c2c1[C@H](C(=O)O[C@H](Cc1ccc(O)c(O)c1)C(=O)O)[C@@H](c1ccc(O)c(O)c1)O2)O[C@H](Cc1ccc(O)c(O)c1)C(=O)O` [salvianolic acid B], the EC50 in the series on SARS-CoV-2 (setting [1]) amounted to 55500 nM. In addition, the IC50 with SARS-CoV-2 pseudovirus amounted to 416 nM. The “toxic effect on the cell Vero-E6” value in the series on cell Vero-E6 (setting [3]) is “no obvious toxic effect”. The cytotoxicity entry in the series on cell Vero-E6 was “no obvious cytotoxicity”. Also, in the series on cell 293T/ACE2 (setting [2]), the “toxic effect on the cell 293T/ACE2” value is listed as “no obvious toxic effect”.

Turning to `C[C@H]1COC2=C1C(=O)C(=O)c1c2ccc2c1CCCC2(C)C` [cryptotanshinone, Cryptotanshinone], the EC50 with SARS-CoV-2 (setting [1]) came to 1460 nM. Further, the “toxic effect on the cell Vero-E6” value in the series with cell Vero-E6 (setting [2]) was “no obvious toxic effect”. Besides, the cytotoxicity entry in the series on cell Vero-E6 is “no obvious cytotoxicity”.

Consider `O=C(/C=C/c1ccc(O)c2oc(-c3ccc(O)c(O)c3)cc12)O[C@H](Cc1ccc(O)c(O)c1)C(=O)O` [salvianolic acid C], for which the EC50 in the series on SARS-CoV-2 (setting [1]) came out at 3410 nM. The IC50 in the series on SARS-CoV-2 pseudovirus was 5900 nM. In the series with cell Vero-E6 (setting [3]), the “toxic effect on the cell Vero-E6” value is recorded as “no obvious toxic effect”. Further, the cytotoxicity entry in the series on cell Vero-E6 is on record as “no obvious cytotoxicity”. Besides, the “toxic effect on the cell 293T/ACE2” value with cell 293T/ACE2 (setting [3]) was “no obvious toxic effect”.
